Results reported in patent publication US20230203095A1, “BIOLOGICAL PEPTIDE FOR TREATING LUNG DISEASES AND APPLICATION THEREOF” (SHANGHAI INSTITUTE OF PHARMACEUTICAL INDUSTRY CO., LTD., priority 2019, published 2023).
Several values for one entry are separate records, joined by “and”; a condition that tells them apart may be missing. Equal entries are not always repeated. Where two headings read alike, the source gives them in different places. Blank lines part the entries; values can stand above or below the compound they belong to. Peptide text beside a SMILES is read from it. * marks the point of attachment. X1 = CC(=O)N[C@H]1C(*)O[C@H](CO)[C@@H](O)[C@@H]1O

Columns and labels:
COPD model rats = assay: Lung function (200 ms pulmonary ventilation) in smoking + LPS COPD model rats; type: in vivo, SD rats; settings: 5 mg/kg body weight/day, aerosol, once a day for 4 weeks
serum IgE = assay: Serum IgE level in OVA-induced allergic asthma model mice; type: in vivo, BALB/c mice
Description: (§1) The first batch: mice were divided into groups, 10 mice in each group, namely: blank control group (normal saline), model group (OVA, 20 ug/mouse), SP peptide group (administered dose of 175 µg/kg body weight/day, 350 µg/kg body weight/day, respectively), SIPI-D00 peptide group (administered dose of 175 µg/kg body weight/day, 350 µg/kg body weight/day), and dexamethasone group (administered dose of 2 mg/kg body weight/day).
OVA for sensitization was dissolved in sterile PBS solution at a final concentration of 0.2 mg/mL, then an equal volume of aluminum hydroxide adjuvant was added. After shaking for 30 minutes, each mouse was intraperitoneally injected with 0.2 mL (20 µg OVA per mouse).
2% OVA solution was prepared in sterile PBS. The 2% OVA was nebulized with a nebulizer, and the mice were placed in the nebulizer inhalation box for 30 minutes per day.
According to the dosage, SP peptide and SIPI-D00 were dissolved in normal saline respectively, and administered by subcutaneous administration on the back according to the body weight of the animals.
(§2) Mice in the model group, SP peptide group, SIPI-D00 peptide group and dexamethasone group were sensitized by intraperitoneal injection of OVA (20 µg OVA/mice) on day 0, 7, and 14, and challenged by aerosol administration of OVA (once a day for 5 consecutive days) on day 21-25 to construct asthmatic model animals. Mice in the model group were given normal saline on days 21-28; mice in different doses of SP peptide group and SIPI-D00 peptide group were injected subcutaneously with different doses of SP and SIPI-D00 on days 19-28; mice in dexamethasone group were injected intraperitoneally with 2 mg/kg/day dexamethasone on days 21-28. At the same time, 10 mice in the blank control group were fed normally from day 0 to day 28 without any treatment, and were given normal saline as a blank control.
After 28 days, blood was collected from the inner canthus of the mouse, and the serum was collected, and the IgE level in the serum was measured with an ELISA kit. […]
(§3) At the same time, 10 mice in the blank control group were fed normally from day 0 to day 28 without any treatment, and were given normal saline as a blank control.

[1] = system: OVA-induced asthma model mice; assay: Lung function (inspiratory airway resistance, lung compliance) in OVA-induced allergic asthma model mice; type: in vivo, BALB/c mice; settings: for Inspiratory airway resistance / Lung compliance: 2 mg/kg/day i.p., n=10
Description: The second batch: mice were divided into groups, 10 mice in each group, namely: blank control group (normal saline), model group (OVA, dose of 20 ug/mouse), SP peptide group (administered dose of 87.5 µg/kg body weight/ day, 175 µg/kg body weight/day, 350 µg/kg body weight/day, respectively), SIPI-D00 peptide group (administered dose of 87.5 µg/kg body weight/day, 175 µg/kg body weight/day, 350 µg/kg body weight/day), and Dexamethasone group (administered dose of 2 mg/kg body weight/day).
as §2
On the 28th day, the mice were anesthetized with tracheal intubation and jugular vein intubation, and the inspiratory airway resistance and lung compliance were measured in each group of animals. Each animal was given fold increasing amounts of methacholine via the jugular vein: 0.025 mg/kg, 0.05 mg/kg, 0.1 mg/kg, 0.2 mg/kg. After each dose was given, the lung compliance curve was recorded continuously for 5 minutes, and the inspiratory airway resistance and lung compliance were calculated. […]
as §3

[2] = system: OVA-induced asthma model mice; assay: Lung pathology (H&E) of OVA-induced asthma model mice; type: in vivo, BALB/c mice; settings: after 28 days
Description: as §1, §2
After 28 days, the mouse lung tissue was taken out, fixed in 4% formaldehyde, embedded in paraffin, sectioned, and stained with H&E for pathological observation.
as §1, with “ug/mice), and” for “ug/mouse),”, “SIPI-G5” for “SIPI-D00”, “weight/day),” for “weight/day), and”
as §3

[3] = Stability of each 7-peptide compound in rat whole blood; type: in vitro ADME; settings: for stability in whole blood: compared with SP peptide; for recovery: rat whole blood, 37° C., 1000 ng/mL, read-out: Recovery rate (%) M±SD
Description: Preparation of the test product: SP and SIPI-D00 were dissolved and diluted with an appropriate amount of 50% acetonitrile water containing 0.1% formic acid to obtain a working solution with a concentration of 200 µg/mL.
• 1) Fresh rat whole blood was added to the EP tube, and shaken gently to mix well; • 2) The EP tube was pre-incubated in a 37° C. water bath for 5 minutes; • 3) Each compound was added to start the reaction and continued to incubate at 37° C.; • 4) 50 µL sample was taken from the sample tube at 0, 2 min, 5 min, 10 min, 30 min, and 60 min, respectively, into the stop tube, 50 µL of ice-cold 7% perchloric acid was added, and shaken to stop the reaction; • 5) Sample was centrifuged at 13000 r/min for 10 min, 75 µL supernatant was aspirated, 60 µL1.25% ammonia water was added and mixed well. After filtered with […] microporous membrane, 20 µL sample was taken for LC-MS/MS analysis.

[4] = Plasma drug concentrations and pharmacokinetics after a single subcutaneous injection of SP peptide or SIPI-D00 peptide in SD rats; type: in vivo
Description: Route: Single back subcutaneous injection;
Dosage of the drug: SP peptide and SIPI-D00 peptide were prepared into 3.33 mg/mL solution with normal saline, the dosage of SP peptide by back subcutaneous injection was 10 mg/kg body weight, and the dosage of SIPI-D00 peptide by back subcutaneous injection was 5 mg/kg body weight. […]

[5] = system: ConA-stimulated mouse splenocytes; assay: Secretion of IL-4 from mouse splenocytes stimulated by ConA (ELISA); type: cell-based, BALB/C mice; settings: for IL-4 levels of polypeptides: ConA 5 µg/mL, 24 h
Description: (§4) Three BALB/C mice were sacrificed by cervical dislocation after anesthesia. Then mice were immersed in 75% ethanol for 5 minutes. After dissection and spleen extraction, spleen lymphocytes were prepared. […] Different concentrations of test substances were added to each well, and duplicate wells were set for each concentration, and the final concentration of ConA was 5 µg/mL. The plate was incubated in a 37° C. 5% CO2 incubator for 24 h, the drug-containing cell suspension was aspirated from each well, then centrifuged at 200 g for 15 min at 4° C. The supernatant was taken, and mouse IL-4 Elisa kit was used to detect IL- 4 content.
as §4, with “each concentration was” for “duplicate wells were”, “up as triple wells,” for “for each concentration,”, “kit (mouse IL-4 Elisa kit)” for “kit”

Compound: CCCC1O[C@@H]2C[C@H]3[C@@H]4CCC5=CC(=O)C=C[C@]5(C)[C@H]4[C@@H](O)C[C@]3(C)[C@]2(C(=O)CO)O1 (stereo partly shown) [Budesonide, budesonide]
200 ms pulmonary ventilation (COPD model rats): 77.17 ± 11.20 mL
Percentage of 200 ms pulmonary ventilation (%) (COPD model rats): 465.8±77.8 %

Compound: C[C@@H]1C[C@H]2[C@@H]3CCC4=CC(=O)C=C[C@]4(C)[C@@]3(F)[C@@H](O)C[C@]2(C)[C@@]1(O)C(=O)COP(=O)([O-])[O-].[Na+].[Na+] [Dexamethasone, dexamethasone sodium phosphate, reference compound]
Serum IgE level (OD450) (serum IgE; 2 mg/kg/day intraperitoneal, days 21-28, n=10): 0.285 ± 0.041 OD450
Inspiratory airway resistance ([1]; methacholine 0 mg/kg): 1.00±0.00
Lung compliance ([1]; methacholine 0 mg/kg): 1.00±0.00
Inspiratory airway resistance ([1]; methacholine 0.025 mg/kg): 1.06±0.08
Lung compliance ([1]; methacholine 0.025 mg/kg): 0.97±0.10
Inspiratory airway resistance ([1]; methacholine 0.05 mg/kg): 1.15±0.14
Lung compliance ([1]; methacholine 0.05 mg/kg): 0.89±0.14
Inspiratory airway resistance ([1]; methacholine 0.1 mg/kg): 1.20±0.21
Lung compliance ([1]; methacholine 0.1 mg/kg): 0.87±0.22
Inspiratory airway resistance ([1]; methacholine 0.2 mg/kg): 1.23±0.17
Lung compliance ([1]; methacholine 0.2 mg/kg): 0.83±0.14
inspiratory phase resistance (in words) ([1]; compared with the model group): significantly reduced
lung compliance (in words) ([1]; compared with the model group): significantly increased
lung pathology, H&E ([2]; positive control group (dexamethasone 2 mg/kg body weight/day)): a small amount of inflammatory cell infiltration in the lungs, but the alveolar cavity is seriously damaged

recovery ([3]; incubation time 0 min): 100%
recovery ([3]; incubation time 2 min): 94.6 ± 8.5%
recovery ([3]; incubation time 5 min): 87.3 ± 5.6%
recovery ([3]; incubation time 10 min): 87.2 ± 5.9%
recovery ([3]; incubation time 30 min): 77.7 ± 8.1%
recovery ([3]; incubation time 60 min): 77.1 ± 2.3%
Compound: CC(=O)N[C@H]1C(OC[C@H](NC(=O)[C@@H](NC(=O)[C@H](Cc2ccc(O)cc2)NC(=O)[C@@H](NC(=O)[C@H](CCC(N)=O)NC(=O)CN)[C@@H](C)OC2O[C@H](CO)[C@@H](O)[C@H](O)[C@H]2NC(C)=O)[C@@H](C)OC2O[C@H](CO)[C@@H](O)[C@H](O)[C@H]2NC(C)=O)C(=O)NCC(=O)O)O[C@H](CO)[C@@H](O)[C@@H]1O (stereo partly shown) [SIPI-G4, GQT(Glc)YT(Glc)S(Glc)G] (H-GQT(X1)YT(X1)S(X1)G-OH)
stability in whole blood [3]: significantly higher than that of SP peptide

recovery ([3]; incubation time 0 min): 100%
recovery ([3]; incubation time 2 min): 86.1 ± 1.8%
recovery ([3]; incubation time 5 min): 81.3 ± 8.3%
recovery ([3]; incubation time 10 min): 73.4 ± 2.6%
recovery ([3]; incubation time 30 min): 59.7 ± 8.8%
recovery ([3]; incubation time 60 min): 51.1 ± 4.9%
Compound: CC(=O)N[C@H]1C(O[C@H](C)[C@H](NC(=O)[C@H](CCC(N)=O)NC(=O)CN)C(=O)N[C@@H](Cc2ccc(O)cc2)C(=O)N[C@H](C(=O)N[C@@H](CO)C(=O)NCC(=O)O)[C@@H](C)O)O[C@H](CO)[C@@H](O)[C@@H]1O (stereo partly shown) [SIPI-G6, GQT(Glc)YTSG] (H-GQT(X1)YTSG-OH)
stability in whole blood [3]: significantly higher than that of SP peptide

recovery ([3]; incubation time 0 min): 100%
recovery ([3]; incubation time 2 min): 83.6 ± 8.1%
recovery ([3]; incubation time 5 min): 83.2 ± 6.1%
recovery ([3]; incubation time 10 min): 80.7 ± 2.3%
recovery ([3]; incubation time 30 min): 71.2 ± 6.3%
recovery ([3]; incubation time 60 min): 58.6 ± 4.8%
Compound: CC(=O)N[C@H]1C(O[C@H](C)[C@H](NC(=O)[C@H](Cc2ccc(O)cc2)NC(=O)[C@@H](NC(=O)[C@H](CCC(N)=O)NC(=O)CN)[C@@H](C)OC2O[C@H](CO)[C@@H](O)[C@H](O)[C@H]2NC(C)=O)C(=O)N[C@@H](CO)C(=O)NCC(=O)O)O[C@H](CO)[C@@H](O)[C@@H]1O (stereo partly shown) [SIPI-G8, GQT(Glc)YT(Glc)SG] (H-GQT(X1)YT(X1)SG-OH)
stability in whole blood [3]: significantly higher than that of SP peptide

Compound: H-GQTYTSG-OH [SP, GQTYTSG, reference compound]
recovery ([3]; incubation time 0 min): 100%
recovery ([3]; incubation time 2 min): 64.1 ± 7.6%
recovery ([3]; incubation time 5 min): 41.3 ± 6.8%
recovery ([3]; incubation time 10 min): 28.5 ± 0.9%
recovery ([3]; incubation time 30 min): 4.93 ± 0.7%
recovery ([3]; incubation time 60 min): 1.67 ± 0.5%
Plasma concentration ([4]; SP peptide 10 mg/kg s.c., SD rats, time 0 min, parallels 1-4): 0 ng/mL
level at 0.5 min ([4]; male, SD, rat, plasma, sc, 10 mg/kg, SP peptide 10 mg/kg s.c., SD rats, time 0.5 min, parallels 1-4, read-out: Plasma concentration): 74.2 ng/mL
AUC(0-inf) ([4]; rat, in vivo, sc, 10 mg/kg): 11.9 ng·h/mL
AUC(0-t) ([4]; rat, in vivo, sc, 10 mg/kg): 11.9 ng·h/mL
Cmax ([4]; rat, in vivo, sc, 10 mg/kg): 210 ± 21.6 ng/mL
half-life ([4]; rat, in vivo, sc, 10 mg/kg): 8.65 ± 1.79 min
Inhibitory rate of polypeptide on IL-4 secretion ([5]; peptide concentration 1 µg/mL): 33.90%
IL-4 levels of polypeptides ([5]; peptide concentration 1 µg/mL): 14.28 ± 0.51 pg/mL
Inhibitory rate of polypeptide on IL-4 secretion ([5]; peptide concentration 3 µg/mL): 42.51%
IL-4 levels of polypeptides ([5]; peptide concentration 3 µg/mL): 12.42 ± 0.34 pg/mL
Inhibitory rate of polypeptide on IL-4 secretion ([5]; peptide concentration 10 µg/mL): 50.21%
IL-4 levels of polypeptides ([5]; peptide concentration 10 µg/mL): 10.76 ± 2.55 pg/mL
Inhibitory rate of polypeptide on IL-4 secretion ([5]; peptide concentration 30 µg/mL): 52.15%
IL-4 levels of polypeptides ([5]; peptide concentration 30 µg/mL): 10.34 ± 0.27 pg/mL
Serum IgE level (OD450) (serum IgE; 175 ug/kg/day subcutaneous, days 19-28, n=10): 0.634 ± 0.078 OD450 and 0.634 + OD450
Serum IgE level (OD450) (serum IgE; 350 ug/kg/day subcutaneous, days 19-28, n=10): 0.595 ± 0.041 OD450 and 0.595 + OD450
lung pathology, H&E ([2]; high-dose group (350 µg/kg body weight/day)): some inflammatory cells are found in the airway mucosa
lung pathology, H&E ([2]; low-dose group (175 µg/kg body weight/day)): some inflammatory cells are found in the airway mucosa
